Measurements published in patent EP4380572B1, “FORMULATION FOR SUBSTITUTED 2-AMINOTHIAZOLES IN THE TREATMENT OF FUNGAL AND FUNGAL-BACTERIAL INFECTIONS OF THE NAIL” (OnychoPharm GmbH, priority 2021, dated 2023).

Legend:
[1] = Solubility of abafungin in different solvents (saturated solution, UV at 302 nm); format: physicochemical; details: shaken 24 h, 19°C
Experimental: 2 ml of solvent were placed in a glass vial containing abafungin powder. The vial was mechanically shaken for 24 h in an environment with controlled temperature (19°C). Thereafter the content of the vials was transferred into Eppendorf tubes and centrifuged at 13000 rpm for 3 min. The supernatant (saturated solution) was collected and assayed using a UV spectrometer at 302 nm (λmax of abafungin). […] Drug concentration in the saturated solution (or diluted solution) was then determined using a standard curve (Table 2). Each experiment was conducted in triplicates. […]

[2] = cited from earlier work; for stability of the crystalline form: anhydrate polymorphic crystalline forms described in EP 0 718 296 A1

In the case of Cc1ccc(Oc2ccccc2-c2csc(N=C3NCCCN3)n2)c(C)c1 [abafungin, 4-[2-(2,4-dimethylphenoxy)phenyl]-N-(1,4,5,6-tetrahydropyrimidin-2-yl)-1,3-thiazol-2-amine], the “Solubility mg/100 ml mean ± standard deviation” value ([1]; solvent 1,2-propanediol) is reported as 219.93 ± 12.10 mg/100 ml, the “Solubility mg/100 ml mean ± standard deviation” value ([1]; solvent DMSO) is reported as 4483.42 ± 16.30 mg/100 ml and the “Solubility mg/100 ml mean ± standard deviation” value ([1]; solvent N-methyl pyrrolidone) is reported as 27678.92 ± 434.07 mg/100 ml. For the same molecule, the “Solubility mg/100 ml mean ± standard deviation” value ([1]; solvent PEG600) was 5029.70 ± 12.70 mg/100 ml, the “Solubility mg/100 ml mean ± standard deviation” value ([1]; solvent butyl acetate) was 822.13 ± 2.55 mg/100 ml and the “Solubility mg/100 ml mean ± standard deviation” value ([1]; solvent ethanol) was 238.46 ± 2.72 mg/100 ml. For the same molecule, the “Solubility mg/100 ml mean ± standard deviation” value ([1]; solvent ethyl acetate) was 803.75 ± 35.51 mg/100 ml, the “Solubility mg/100 ml mean ± standard deviation” value ([1]; solvent isopropanol myristate) was 50.60 ± 4.30 mg/100 ml and the “Solubility mg/100 ml mean ± standard deviation” value ([1]; solvent isopropanol) was 156.14 ± 16.5 mg/100 ml. For the same molecule, the “Solubility mg/100 ml mean ± standard deviation” value ([1]; solvent water) was under 0.032 mg/100 ml.
For Cc1ccc(Oc2ccccc2-c2csc(N=C3NCCCN3)n2)c(C)c1 [modification 1], the “stability of the crystalline form” value [2] is given as “metastable”.
In the case of Cc1ccc(Oc2ccccc2-c2csc(N=C3NCCCN3)n2)c(C)c1 [modification 2], the “stability at high humidity” value ([2]; 85% relative humidity, over months) is listed as “stable” and the “stability of the crystalline form” value [2] is listed as “photochemically and thermodynamically more stable”.
